Test systems include OVCAR-3 ovarian; SK-MEL-28 melanoma; HOP-62 NSCLC; MOLT-4 leukemia; SF-268 CNS; UACC-62 melanoma; A498 renal; TK-10 renal; HCT-15 colon.
What all share (test): inhibition of tumour cell growth, NCI panel, 48 h

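Dose response: 5 concentrations. Exposure: 48 h. Format: 96-well plates. Endpoint: linear interpolation; highest concentration if not reached. The concentration for full growth arrest is given as TGI.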

Take `COc1cc2[nH]c(-c3ccccc3)cc(=O)c2cc1OC`: the TGI with OVCAR-3 ovarian was over 100 µM; in the test on SK-MEL-28 melanoma, over 100 µM; in the test with HOP-62 NSCLC, over 100 µM; in the test with MOLT-4 leukemia it was over 100 µM; with SF-268 CNS, over 100 µM; in the test with UACC-62 melanoma, over 89 µM. The TGI in the test on A498 renal is over 100 µM; in the test on TK-10 renal it was 98.7 µM; in the test on HCT-15 colon, 97.9 µM.
With `N#CC(c1ccccc1)c1cccc2ccccc12` (centres undefined), the TGI with OVCAR-3 ovarian is 86.6 µM; in the test with SK-MEL-28 melanoma it was over 100 µM; with HOP-62 NSCLC, over 100 µM; in the test with MOLT-4 leukemia, 57.6 µM; in the test with SF-268 CNS it was 98.8 µM; in the test with UACC-62 melanoma, over 100 µM. The results for the TGI with A498 renal, in the test with TK-10 renal and with HCT-15 colon were 76.5 µM, over 100 µM and over 100 µM, respectively.
Consider `COc1ccc2c(c1)CC[C@@H]1[C@@H]2CC[C@]2(C)/C(=N/OCCN3CCCCC3)CC[C@@H]12`, for which the TGI stood at 15 µM in the test with OVCAR-3 ovarian; 5 µM in the test with SK-MEL-28 melanoma; 21 µM in the test with HOP-62 NSCLC; 8.37 µM with MOLT-4 leukemia; 24.7 µM with SF-268 CNS; 3.68 µM in the test on UACC-62 melanoma. The figures for the TGI in the test on A498 renal, with TK-10 renal and in the test on HCT-15 colon were 23 µM, 14.4 µM and 6.23 µM, respectively.
`Fc1cccc2nc(-c3ccccc3)cc(OCc3ccccc3)c12`: the TGI with OVCAR-3 ovarian, in the test with SK-MEL-28 melanoma, with HOP-62 NSCLC, in the test on MOLT-4 leukemia, in the test on SF-268 CNS and in the test on UACC-62 melanoma was over 100 µM in each case. The TGI with A498 renal, with TK-10 renal and in the test with HCT-15 colon was over 100 µM in each case.
In the case of `COc1ccc(-c2cn3c(n2)sc2cc(C)ccc23)cc1`, the TGI with OVCAR-3 ovarian was over 100 µM; in the test with SK-MEL-28 melanoma, over 100 µM; in the test on HOP-62 NSCLC, 81.3 µM; in the test with MOLT-4 leukemia it was over 100 µM; in the test with SF-268 CNS, 78.7 µM; in the test with UACC-62 melanoma, 41.9 µM. Further, the TGI with A498 renal is 47.4 µM; with TK-10 renal, 47.3 µM; in the test with HCT-15 colon, over 100 µM.
Take `COc1cc(C2c3cc4c(cc3OC(N3CCOCC3)C2C)OCO4)cc(OC)c1O` (centres undefined): the TGI in the test on OVCAR-3 ovarian was over 34 µM; in the test with SK-MEL-28 melanoma, over 48.6 µM; in the test on HOP-62 NSCLC, 35.5 µM; in the test on MOLT-4 leukemia, over 100 µM; in the test with SF-268 CNS, over 100 µM; in the test with UACC-62 melanoma, over 100 µM. For the same compound, the TGI in the test on A498 renal stood at 41.2 µM; in the test with TK-10 renal, 70.6 µM; with HCT-15 colon, 25.5 µM.
In the case of `O=C1/C(=C/c2cccs2)N=C(c2ccccc2)N1C1Nc2cc3c(cc2S1)NC(N1C(=O)/C(=C/c2cccs2)N=C1c1ccccc1)S3` (centres undefined), the TGI with OVCAR-3 ovarian was over 100 µM; with SK-MEL-28 melanoma it was over 100 µM; in the test with HOP-62 NSCLC, over 100 µM; in the test with MOLT-4 leukemia it was 59.6 µM; in the test on SF-268 CNS, 47.5 µM; in the test with A498 renal, over 100 µM. The values for the TGI with TK-10 renal and in the test on HCT-15 colon were over 100 µM and 34.7 µM, respectively.
Take `CN(C)Cc1cc(C(=O)/C=C/c2ccc(/C=C/C(=O)c3cc(CN(C)C)c(O)c(CN(C)C)c3)cc2)cc(CN(C)C)c1O`: the TGI was over 100 µM in the test with OVCAR-3 ovarian; over 100 µM in the test on SK-MEL-28 melanoma; over 100 µM in the test with HOP-62 NSCLC; 68.6 µM with MOLT-4 leukemia; over 100 µM with SF-268 CNS; 94.3 µM in the test with UACC-62 melanoma. Besides, the TGI in the test on A498 renal, in the test with TK-10 renal and with HCT-15 colon was over 100 µM in each case.
For `C=C(Br)CN(C#N)CC(=C)Br`, the TGI in the test on OVCAR-3 ovarian, with SK-MEL-28 melanoma, with HOP-62 NSCLC, in the test with MOLT-4 leukemia, in the test with SF-268 CNS and in the test on UACC-62 melanoma was over 100 µM throughout. For the same compound, the TGI in the test on A498 renal, with TK-10 renal and with HCT-15 colon was over 100 µM in each case.
For the compound `NC1CCC(c2cc3ccccc3s2)(N2CCCCC2)CC1` (centres undefined), the TGI was 2.81 µM in the test with OVCAR-3 ovarian; 3.11 µM in the test with SK-MEL-28 melanoma; 4.5 µM in the test on HOP-62 NSCLC; 3.25 µM in the test with MOLT-4 leukemia; 15.8 µM in the test with SF-268 CNS; 6.25 µM in the test on UACC-62 melanoma. Besides, the TGI was determined as 22.9 µM in the test on A498 renal, 19 µM in the test with TK-10 renal and 3.76 µM in the test on HCT-15 colon.
In the case of `O=C(CSC1=NCCN1)c1ccccc1`, the TGI in the test with OVCAR-3 ovarian, in the test on SK-MEL-28 melanoma, in the test on HOP-62 NSCLC, in the test on MOLT-4 leukemia, with SF-268 CNS and in the test on UACC-62 melanoma was over 100 µM in each case. In addition, the TGI with A498 renal, in the test with TK-10 renal and in the test with HCT-15 colon was over 100 µM each time.
As to `O=C1CC(c2cccc(Cl)c2)n2cccc21` (centres undefined), the TGI in the test with OVCAR-3 ovarian, with SK-MEL-28 melanoma, in the test with HOP-62 NSCLC, in the test on MOLT-4 leukemia, in the test on SF-268 CNS and in the test on UACC-62 melanoma was over 100 µM each time. Also, the TGI with A498 renal, in the test with TK-10 renal and in the test with HCT-15 colon was over 100 µM each time.
Take `COC(=O)c1c(O)ccc2c1c1c(n2C)C(=O)c2ccccc2C1=O`: the TGI in the test on OVCAR-3 ovarian was over 100 µM; in the test on SK-MEL-28 melanoma, over 100 µM; in the test with HOP-62 NSCLC, 28 µM; in the test with MOLT-4 leukemia, 22.8 µM; in the test on SF-268 CNS, 43.6 µM; with A498 renal, over 100 µM. The TGI was 86.4 µM with TK-10 renal and over 100 µM with HCT-15 colon.
`COC(=O)/C=C1/OC(c2ccccc2)=C(Cl)C1=O`: the TGI with OVCAR-3 ovarian is 33.8 µM; in the test on SK-MEL-28 melanoma, 42.5 µM; in the test on HOP-62 NSCLC, over 58 µM; with MOLT-4 leukemia it was 18.1 µM; in the test on SF-268 CNS, 48.1 µM; in the test with UACC-62 melanoma, 38.8 µM. Moreover, the TGI came out at 68.2 µM with A498 renal, 51.6 µM in the test on TK-10 renal and 25.4 µM in the test with HCT-15 colon.
Consider `CCN(CC)C(=O)CCCCCCCCC1CO1` (centres undefined), for which the TGI in the test on OVCAR-3 ovarian, with SK-MEL-28 melanoma, with HOP-62 NSCLC, with MOLT-4 leukemia, in the test on SF-268 CNS and in the test on UACC-62 melanoma was over 100 µM throughout. The TGI in the test on A498 renal, in the test with TK-10 renal and in the test on HCT-15 colon was over 100 µM throughout.
Regarding `COc1ccc(CN=CN/C(C#N)=C(\N)C#N)cc1OC`, the TGI in the test on OVCAR-3 ovarian, in the test with SK-MEL-28 melanoma, in the test with HOP-62 NSCLC, with MOLT-4 leukemia, in the test with SF-268 CNS and in the test with UACC-62 melanoma was over 100 µM each time. The TGI in the test with A498 renal, in the test with TK-10 renal and with HCT-15 colon was over 100 µM each time.
Regarding `COc1cccc(-c2cc(=O)c3cc(C)cnc3[nH]2)c1`, the TGI with OVCAR-3 ovarian was over 100 µM; in the test with SK-MEL-28 melanoma, over 100 µM; with HOP-62 NSCLC, over 100 µM; with MOLT-4 leukemia it was over 32.4 µM; in the test with SF-268 CNS, over 100 µM; with UACC-62 melanoma it was over 100 µM. For the same compound, the TGI with A498 renal and in the test with TK-10 renal was over 100 µM each time.
On to `CC1(C)CCOC(=O)C(Cl)CC1Cl` (centres undefined), for which the TGI in the test on OVCAR-3 ovarian, with SK-MEL-28 melanoma, in the test with HOP-62 NSCLC, in the test on MOLT-4 leukemia, in the test with SF-268 CNS and with UACC-62 melanoma was over 100 µM in each case. Further, the TGI in the test with A498 renal, with TK-10 renal and in the test with HCT-15 colon was over 100 µM each time.
As to `CC(Nc1cc(Cl)cc(Cl)c1)c1ccncc1` (centres undefined), the TGI amounted to 35.7 µM in the test on OVCAR-3 ovarian; 97.8 µM with SK-MEL-28 melanoma; 33.5 µM in the test with HOP-62 NSCLC; 69.1 µM in the test with MOLT-4 leukemia; 51.9 µM with SF-268 CNS; 88.8 µM in the test with A498 renal. Further, the TGI in the test with TK-10 renal and in the test with HCT-15 colon was over 100 µM in each case.
Take `Brc1ccc2c(c1)C1=C(CO2)Cc2ccccc2O1`: the TGI with OVCAR-3 ovarian was 31.8 µM; with HOP-62 NSCLC, 30.3 µM; with MOLT-4 leukemia, 66.1 µM; with SF-268 CNS, 41 µM; in the test with UACC-62 melanoma, 32.2 µM; in the test on A498 renal, 45.2 µM. The TGI in the test with TK-10 renal came out at 37.2 µM; in the test on HCT-15 colon it was 38.4 µM.
On to `COc1ccc(-c2cc(-c3ccc(Nc4ccnc5cc(Cl)ccc45)cc3)nc(N)c2C#N)c2ccccc12`, for which the TGI with SK-MEL-28 melanoma, in the test on HOP-62 NSCLC, with MOLT-4 leukemia, with SF-268 CNS, with UACC-62 melanoma and in the test on A498 renal was over 100 µM throughout. Further, the TGI in the test with TK-10 renal and with HCT-15 colon was over 100 µM throughout.
In the case of `CSc1n[n+](C)cc(N)c1N`, the TGI in the test on OVCAR-3 ovarian, with SK-MEL-28 melanoma, in the test on HOP-62 NSCLC, in the test on MOLT-4 leukemia, with UACC-62 melanoma and with A498 renal was over 100 µM throughout. Further, the TGI with TK-10 renal and in the test on HCT-15 colon was over 100 µM throughout.
`CN(C)CCOc1ccc(-c2c(Oc3ccc(Cl)cc3)c(=O)oc3ccccc23)cc1`: the TGI with OVCAR-3 ovarian is 34.3 µM; in the test on HOP-62 NSCLC, 87.8 µM; with MOLT-4 leukemia, over 41.8 µM; with SF-268 CNS, 29.5 µM; in the test on UACC-62 melanoma, 32.1 µM; in the test on A498 renal it was 43 µM. In addition, the values for the TGI in the test with TK-10 renal and in the test on HCT-15 colon were 29.9 µM and 22.8 µM, respectively.
